Source: a melting point compilation (Tetko et al.)

SMILES	melting point
CCCCC(O)C(=O)O (centres undefined)	61 °C
Clc1ccc(Cc2c(N=Cc3ccc4c(c3)OCO4)n[nH]c2N=Cc2ccc3c(c2)OCO3)cc1	206 to 208 °C
C=C(C)CCCCCCC	-64 °C
CC1NC(C(=O)O)C(C)(C)S1 (mixture of isomers)	166 to 168 °C
Cc1c(COC(=O)C2C(C=C(Cl)C(F)(F)F)C2(C)C)cccc1-c1ccccc1 (centres undefined)	79.6 °C
O=CC(Br)=C(Br)C(=O)O	123 °C
FC(F)(F)C(F)(F)C(Cl)Cl	-94 °C
Nc1nn2c(C(F)(F)F)cc(-c3cccs3)nc2c1/N=N/c1cccc([N+](=O)[O-])c1	245 °C
ClCCI	-15.6 °C
O=C1CSCC(=O)O1	94 to 97 °C
CC(C)CCCC(C)C1CCC2C3CCC4=CC(O)CCC4(C)C3CCC12C (centres undefined)	132 °C
CC(C)[C@@H](C)CC[C@@H](C)[C@H]1CC[C@H]2C3=CC[C@H]4C[C@@H](O)CC[C@]4(C)[C@H]3CC[C@]12C	146 °C
c1ccc2c(c1)ccc1c3ccccc3sc21	189 °C
CC(=O)N1CCSC1C(=O)O (centres undefined)	114 to 116 °C
CCCC(C)CCC	-121 °C
CNN=C(N)C(S)=NNC	185 °C
c1ccc(C(c2ccccc2)c2ccccn2)cc1	54 to 61 °C

SMILES	melting point
C1CN(CCN2CCOCC2)CCO1	75 °C
C1=CCC=C1	-85 °C
c1ccc(-n2ccnc2)cc1	13 °C
OC[C@H]1O[C@@H](Oc2ccccc2)[C@H](O)[C@@H](O)[C@@H]1O	177 °C
CC(=O)OC1CC2C3CC=C4CC(O)CCC4(C)C3CCC2(C)C1C(C)C1CCC(C)CN1 (centres undefined)	210 °C
CCCCCCCCCCC(=O)OCC(COC(=O)CCCCCCCCCC)OC(=O)CCCCCCCCCC	24 to 32 °C
C=CCCCC(=O)O	-37 °C
C=CCN=C(S)NCCO	78 °C
Oc1nsc(SCc2ccccc2)n1	123 to 125 °C
c1ccc(-c2cccc3cccc(-c4ccccc4)c23)cc1	147 °C
CCCCCCCCC(=O)CCCCCC	31 °C
O=C(NCOC(=O)c1ccc(OCNC(=O)c2ccccc2)cc1)c1ccccc1	176 to 178 °C
O=C1CN=C(c2ccccc2F)c2cc(Cl)ccc2N1CC1CC1	118 °C
ON=C(NN=C(Cl)C(F)(F)F)C(F)(F)F	119 °C
N=C(N)NCC(=O)O	300 °C
c1cc2c3c(cccc3c1)C1=NCCN=C12	95 °C

More lines, now with the values ahead:

melting point	SMILES
184 to 185 °C	O=C(O)c1ccc(CN2CCCC2)cc1
53.5 °C	CCOC(=O)C=Cc1cccc(C=CC(=O)OCC)c1
52 °C	O=C(OCc1ccccc1)c1sc(Cl)nc1C(F)(F)F
134 °C	CC(C)(C)NC(=O)c1ccccc1
-13 °C	COC(=O)c1ccccc1[N+](=O)[O-]
233 to 235 °C	Cc1cc(C)n(N=Cc2ccccc2Cl)c(=O)c1C#N
139 to 140 °C	Cn1nc(-c2cccs2)cc1N
184 °C	Ic1cc(I)cc(I)c1
55 °C	Oc1c(Br)cc(F)cc1Br
29 °C	COC(=O)c1cccc(C)c1O
190 °C	O=C1C(=Cc2ccccc2)SC(=S)N1CNc1cccc([N+](=O)[O-])c1
170 °C	Cc1nc(/C(C#N)=C/c2ccc(F)cc2)sc1/N=N/c1c(Br)cc(Br)cc1Br
238 °C	Oc1ncnc2cccc(F)c12
174 to 176 °C	CC(=O)Nc1c(C)cc(Cl)cc1Cl
199 °C	COc1ccc(C(=O)C2=NOC3C(=O)N(c4ccc(C(=O)O)cc4)C(=O)C23)cc1 (centres undefined)
222 °C	CC=Cc1cc2c(c(=O)o1)C(=O)C(O)C(C)O2 (centres undefined)

melting point	SMILES
203 °C	Oc1cc(Br)ccn1
212 to 216 °C	O=C(O)c1sc(-c2ccccc2)nc1-c1ccccc1
196 °C	CC(=O)c1ccc2c(c1)NC(=O)CO2
41 °C	Cc1ccc(C#N)cc1Br
106 to 109 °C	NC(=S)c1cccc2c1OCCO2
181 °C	CC(C)(c1cc(Br)c(O)c(Br)c1)c1cc(Br)c(O)c(Br)c1
225 °C	O=C(O)C=Cc1c[nH]cn1
156 °C	CC(C)(C)c1ccc(C2CCC3(CC2)Cc2ccc(O)cc2C3)cc1 (centres undefined)
140 °C	Cc1ccc(N=Nc2cc(C(C)C)c(N=Nc3ccc(C)cc3)cc2C)cc1
137 to 143 °C	O=CC(C=O)c1ccc(Cl)cc1
52 °C	CCOc1cc(C=O)ccc1OC
248 °C	O=C(O)Cn1c(C(F)(F)F)nc2ccccc21
85 °C	COC(=O)C(C)N(C(=O)c1ccccc1)c1ccc(F)c(Cl)c1 (centres undefined)
86 to 92 °C	O=C(O)[C@@H]1C[C@H]1c1ccccc1 (relative stereo)
185 °C	O=C(C1=NOC2C(=O)N(c3cc(Cl)ccc3Cl)C(=O)C12)c1ccccc1 (centres undefined)
